Measurements from the supplement of paper PMC12350171.

Legend:
[1] = system: Com21 synthetic gut community; assay: community biomass OD578 after 24 h drug treatment relative to untreated (fraction of untreated control); higher = more community growth; conditions: community: Com21 (Com20 + E. coli ED1a)
Experimental: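 Com21 (Com20 plus E. coli ED1a) was treated with drug for 24 h under anaerobic conditions in mGAM. Community OD578 was then measured and normalised to untreated Com21; mean of 3 biological replicates.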

[2] = system: Streptococcus parasanguinis; assay: IC25 growth inhibition; higher = less potent
Summary of the method: (§1)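 Overnight monocultures grown in mGAM were moved into pre-reduced plates containing twofold drug dilutions, at a starting OD578 of 0.01 with 1% DMSO (or water). Plates were kept anaerobic and read hourly at OD578 in a plate reader, with at least three biological replicates. For each concentration, the median area under the growth curve was made monotonic, and IC25 was the lowest concentration whose median fell below a cutoff, reported as a tested interval. That cutoff was 0.75.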

Roseburia intestinalis = assay: IC25 growth inhibition; higher = less potent
Summary of the method: as §1

[3] = system: Clostridium saccharolyticum; assay: IC25 growth inhibition; higher = less potent
Summary of the method: as §1

Bacteroides fragilis NT = assay: IC25 growth inhibition; higher = less potent
Summary of the method: as §1

Dorea formicigenerans = assay: IC25 growth inhibition; higher = less potent
Summary of the method: as §1

[4] = system: Salmonella enterica typhimurium; assay: IC25 growth inhibition; higher = less potent
Summary of the method: as §1

Eubacterium rectale = assay: IC25 growth inhibition; higher = less potent
Summary of the method: as §1

Ruminococcus gnavus = assay: IC25 growth inhibition; higher = less potent
Summary of the method: as §1

Coprococcus comes = assay: IC25 growth inhibition; higher = less potent
Summary of the method: as §1

Shigella flexneri = assay: IC25 growth inhibition; higher = less potent
Summary of the method: as §1

Vibrio cholerae = assay: IC25 growth inhibition; higher = less potent
Summary of the method: as §1

Escherichia coli ED1a = assay: IC25 growth inhibition; higher = less potent
Summary of the method: as §1

Bacteroides uniformis = assay: IC25 growth inhibition; higher = less potent
Summary of the method: as §1

[5] = system: Yersinia pseudotuberculosis; assay: IC25 growth inhibition; higher = less potent
Summary of the method: as §1

Bacteroides vulgatus = assay: IC25 growth inhibition; higher = less potent
Summary of the method: as §1

Clostridium perfringens = assay: IC25 growth inhibition; higher = less potent
Summary of the method: as §1

Clostridium ramosum = assay: IC25 growth inhibition; higher = less potent
Summary of the method: as §1

Clostridium bolteae = assay: IC25 growth inhibition; higher = less potent
Summary of the method: as §1

[6] = system: Yersinia enterocolitica WA-314; assay: IC25 growth inhibition; higher = less potent
Summary of the method: as §1

Parabacteroides merdae = assay: IC25 growth inhibition; higher = less potent
Summary of the method: as §1

Collinsella aerofaciens = assay: IC25 growth inhibition; higher = less potent
Summary of the method: as §1

[7] = system: Bacteroides thetaiotaomicron; assay: IC25 growth inhibition; higher = less potent
Summary of the method: as §1

[8] = system: Fusobacterium nucleatum subsp. Nucleatum; assay: IC25 growth inhibition; higher = less potent
Summary of the method: as §1

Streptococcus salivarius = assay: IC25 growth inhibition; higher = less potent
Summary of the method: as §1

[9] = drug pretreatment concentration 10 µM
[10] = drug pretreatment concentration 20 µM
[11] = drug pretreatment concentration 40 µM
[12] = drug pretreatment concentration 80 µM
[13] = drug pretreatment concentration 160 µM
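Throughout, for IC25 growth inhibition: lowest concentration where monotonic median growth AUC falls below 0.75 of drug-free control.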

Compound: CN(Cc1cnc2nc(N)nc(N)c2n1)c1ccc(C(=O)N[C@@H](CCC(=O)O)C(=O)O)cc1 [Methotrexate]
- community biomass OD578 ([1]; drug pretreatment concentration 2.5 µM): 0.93
- community biomass OD578 ([1]; drug pretreatment concentration 5 µM): 0.91
- community biomass OD578 [1, 9]: 0.934
- community biomass OD578 [1, 10]: 0.95
- community biomass OD578 [1, 11]: 0.802
- IC25 growth inhibition [2]: < 1.25 µM
- IC25 growth inhibition (Roseburia intestinalis): > 80 µM
- IC25 growth inhibition [3]: > 80 µM
- IC25 growth inhibition (Bacteroides fragilis NT): ≤ 40 µM
- IC25 growth inhibition (Dorea formicigenerans): ≤ 40 µM
- IC25 growth inhibition [4]: > 80 µM
- IC25 growth inhibition (Eubacterium rectale): ≤ 80 µM
- IC25 growth inhibition (Ruminococcus gnavus): ≤ 10 µM
- IC25 growth inhibition (Coprococcus comes): ≤ 80 µM
- IC25 growth inhibition (Shigella flexneri): > 80 µM
- IC25 growth inhibition (Vibrio cholerae): ≤ 40 µM
- IC25 growth inhibition (Escherichia coli ED1a): > 40 µM
- IC25 growth inhibition (Bacteroides uniformis): ≤ 10 µM
- IC25 growth inhibition [5]: > 80 µM
- IC25 growth inhibition (Bacteroides vulgatus): ≤ 20 µM
- IC25 growth inhibition (Clostridium perfringens): ≤ 20 µM
- IC25 growth inhibition (Clostridium ramosum): < 1.25 µM
- IC25 growth inhibition (Clostridium bolteae): ≤ 10 µM
- IC25 growth inhibition [6]: > 80 µM
- IC25 growth inhibition (Parabacteroides merdae): > 80 µM
- IC25 growth inhibition (Collinsella aerofaciens): ≤ 80 µM
- IC25 growth inhibition [7]: > 80 µM
- IC25 growth inhibition [8]: ≤ 20 µM
- IC25 growth inhibition (Streptococcus salivarius): ≤ 5 µM

Compound: Clc1ccc(COC(Cn2ccnc2)c2ccc(Cl)cc2Cl)c(Cl)c1 (stereo unspecified) [Miconazole]
- community biomass OD578 [1, 9]: 1.02
- community biomass OD578 [1, 10]: 0.969
- community biomass OD578 [1, 11]: 0.893
- community biomass OD578 [1, 12]: 0.702
- community biomass OD578 [1, 13]: 0.547
- IC25 growth inhibition [2]: > 160 µM
- IC25 growth inhibition (Roseburia intestinalis): ≤ 5 µM
- IC25 growth inhibition [3]: ≤ 40 µM
- IC25 growth inhibition (Bacteroides fragilis NT): > 160 µM
- IC25 growth inhibition (Dorea formicigenerans): ≤ 5 µM
- IC25 growth inhibition [4]: > 160 µM
- IC25 growth inhibition (Eubacterium rectale): ≤ 2.5 µM
- IC25 growth inhibition (Ruminococcus gnavus): ≤ 10 µM
- IC25 growth inhibition (Coprococcus comes): ≤ 5 µM
- IC25 growth inhibition (Shigella flexneri): > 40 µM
- IC25 growth inhibition (Vibrio cholerae): > 40 µM
- IC25 growth inhibition (Escherichia coli ED1a): > 80 µM
- IC25 growth inhibition (Bacteroides uniformis): > 160 µM
- IC25 growth inhibition [5]: > 40 µM
- IC25 growth inhibition (Bacteroides vulgatus): ≤ 160 µM
- IC25 growth inhibition (Clostridium perfringens): ≤ 40 µM
- IC25 growth inhibition (Clostridium ramosum): ≤ 10 µM
- IC25 growth inhibition (Clostridium bolteae): ≤ 80 µM
- IC25 growth inhibition [6]: ≤ 160 µM
- IC25 growth inhibition (Parabacteroides merdae): ≤ 80 µM
- IC25 growth inhibition (Collinsella aerofaciens): ≤ 10 µM
- IC25 growth inhibition [7]: > 160 µM
- IC25 growth inhibition [8]: > 40 µM
- IC25 growth inhibition (Streptococcus salivarius): > 80 µM

Compound: O=C(Nc1ccc([N+](=O)[O-])cc1Cl)c1cc(Cl)ccc1O [Niclosamide]
- community biomass OD578 [1, 9]: 0.912
- community biomass OD578 [1, 10]: 0.901
- community biomass OD578 [1, 11]: 0.897
- community biomass OD578 [1, 12]: 0.823
- community biomass OD578 [1, 13]: 0.811
- IC25 growth inhibition [2]: < 1.25 µM
- IC25 growth inhibition (Roseburia intestinalis): ≤ 20 µM
- IC25 growth inhibition [3]: ≤ 20 µM
- IC25 growth inhibition (Bacteroides fragilis NT): < 1.25 µM
- IC25 growth inhibition (Dorea formicigenerans): ≤ 20 µM
- IC25 growth inhibition [4]: > 160 µM
- IC25 growth inhibition (Eubacterium rectale): ≤ 5 µM
- IC25 growth inhibition (Ruminococcus gnavus): ≤ 10 µM
- IC25 growth inhibition (Coprococcus comes): ≤ 20 µM
- IC25 growth inhibition (Shigella flexneri): > 40 µM
- IC25 growth inhibition (Vibrio cholerae): < 1.25 µM
- IC25 growth inhibition (Escherichia coli ED1a): > 80 µM
- IC25 growth inhibition (Bacteroides uniformis): < 1.25 µM
- IC25 growth inhibition [5]: > 20 µM
- IC25 growth inhibition (Bacteroides vulgatus): < 1.25 µM
- IC25 growth inhibition (Clostridium perfringens): ≤ 2.5 µM
- IC25 growth inhibition (Clostridium ramosum): ≤ 2.5 µM
- IC25 growth inhibition (Clostridium bolteae): > 80 µM
- IC25 growth inhibition [6]: > 160 µM
- IC25 growth inhibition (Parabacteroides merdae): < 1.25 µM
- IC25 growth inhibition (Collinsella aerofaciens): ≤ 5 µM
- IC25 growth inhibition [7]: < 1.25 µM
- IC25 growth inhibition [8]: ≤ 80 µM
- IC25 growth inhibition (Streptococcus salivarius): < 1.25 µM

Compound: COc1ccc2[nH]c([S+]([O-])Cc3ncc(C)c(OC)c3C)nc2c1 (stereo unspecified) [Omeprazole]
- community biomass OD578 [1, 9]: 0.981
- community biomass OD578 [1, 10]: 0.997
- community biomass OD578 [1, 11]: 1.01
- community biomass OD578 [1, 12]: 0.979
- community biomass OD578 [1, 13]: 0.95
- IC25 growth inhibition [2]: > 160 µM
- IC25 growth inhibition (Roseburia intestinalis): > 160 µM
- IC25 growth inhibition [3]: > 160 µM
- IC25 growth inhibition (Bacteroides fragilis NT): > 160 µM
- IC25 growth inhibition (Dorea formicigenerans): > 160 µM
- IC25 growth inhibition [4]: > 160 µM
- IC25 growth inhibition (Eubacterium rectale): > 160 µM
- IC25 growth inhibition (Ruminococcus gnavus): > 160 µM
- IC25 growth inhibition (Coprococcus comes): > 160 µM
- IC25 growth inhibition (Shigella flexneri): > 160 µM
- IC25 growth inhibition (Vibrio cholerae): > 160 µM
- IC25 growth inhibition (Escherichia coli ED1a): > 160 µM
- IC25 growth inhibition (Bacteroides uniformis): > 160 µM
- IC25 growth inhibition [5]: > 160 µM
- IC25 growth inhibition (Bacteroides vulgatus): > 160 µM
- IC25 growth inhibition (Clostridium perfringens): > 160 µM
- IC25 growth inhibition (Clostridium ramosum): > 160 µM
- IC25 growth inhibition (Clostridium bolteae): > 160 µM
- IC25 growth inhibition [6]: > 160 µM
- IC25 growth inhibition (Parabacteroides merdae): > 160 µM
- IC25 growth inhibition (Collinsella aerofaciens): > 160 µM
- IC25 growth inhibition [7]: > 160 µM
- IC25 growth inhibition [8]: > 160 µM
- IC25 growth inhibition (Streptococcus salivarius): > 160 µM
